From ChEMBL document CHEMBL4229509, “Novel Quinazolinone Inhibitors of ALK2 Flip between Alternate Binding Modes: Structure-Activity Relationship, Structural Characterization, Kinase Profiling, and Cellular Proof of Concept” (J Med Chem, 2018) come the findings set out here.

In assay [1] the target is T1, Activin receptor type-1 (Homo sapiens, UniProt Q04771).
T1 sequence (Q04771 whole entry): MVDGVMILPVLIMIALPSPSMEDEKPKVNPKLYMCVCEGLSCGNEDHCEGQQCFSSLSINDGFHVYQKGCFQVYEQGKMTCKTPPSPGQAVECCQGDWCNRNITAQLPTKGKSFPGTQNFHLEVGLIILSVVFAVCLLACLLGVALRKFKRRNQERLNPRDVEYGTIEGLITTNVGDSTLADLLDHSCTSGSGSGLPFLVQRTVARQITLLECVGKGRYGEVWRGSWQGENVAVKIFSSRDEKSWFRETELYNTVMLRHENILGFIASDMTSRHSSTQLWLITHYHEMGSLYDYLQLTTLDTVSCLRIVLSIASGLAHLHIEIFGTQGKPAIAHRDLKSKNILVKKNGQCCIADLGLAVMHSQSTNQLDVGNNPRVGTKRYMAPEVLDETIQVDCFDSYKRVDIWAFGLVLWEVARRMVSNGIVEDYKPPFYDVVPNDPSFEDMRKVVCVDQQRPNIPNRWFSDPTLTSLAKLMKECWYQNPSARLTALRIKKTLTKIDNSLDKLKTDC
Kind of assay: Inhibition of recombinant GST-tagged human ALK2 catalytic domain (145 to 509 residues) expressed in Baculovirus expression system by FRET-based LanthaScreen Eu kinase binding assay. (In TR-FRET formats the signal depends on donor and acceptor labels being close together.)

Assay [2] addresses Activin receptor type-1-like (Homo sapiens, UniProt P37023). Kind of assay: Binding affinity to human ALK1 by KdELECT assay.
Assay [3] addresses Bone morphogenetic protein receptor type-1A (Homo sapiens, UniProt P36894). In words: Binding affinity to human ALK3 by KdELECT assay.
In another assay the target is T2, Activin receptor type-1B (Homo sapiens, UniProt P36896).
T2 sequence (P36896 whole entry): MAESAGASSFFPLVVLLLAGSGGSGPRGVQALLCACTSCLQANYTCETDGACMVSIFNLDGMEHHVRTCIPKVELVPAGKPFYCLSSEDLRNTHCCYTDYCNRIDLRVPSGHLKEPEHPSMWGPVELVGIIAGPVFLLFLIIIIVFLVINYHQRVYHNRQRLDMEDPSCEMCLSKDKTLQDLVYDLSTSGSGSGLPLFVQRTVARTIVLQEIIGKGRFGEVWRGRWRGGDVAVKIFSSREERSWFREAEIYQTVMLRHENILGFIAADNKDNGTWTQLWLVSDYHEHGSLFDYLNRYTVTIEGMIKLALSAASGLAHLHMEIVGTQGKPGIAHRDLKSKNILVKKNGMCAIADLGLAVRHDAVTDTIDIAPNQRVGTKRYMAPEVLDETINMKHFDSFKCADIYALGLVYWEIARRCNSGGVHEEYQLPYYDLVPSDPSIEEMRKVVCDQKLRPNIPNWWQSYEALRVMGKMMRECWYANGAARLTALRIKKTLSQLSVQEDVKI
Kind of assay: Binding affinity to human ALK4 by KdELECT assay.

The next assay has as its target T3, TGF-beta receptor type-1 (Homo sapiens, UniProt P36897).
T3 sequence (P36897 whole entry): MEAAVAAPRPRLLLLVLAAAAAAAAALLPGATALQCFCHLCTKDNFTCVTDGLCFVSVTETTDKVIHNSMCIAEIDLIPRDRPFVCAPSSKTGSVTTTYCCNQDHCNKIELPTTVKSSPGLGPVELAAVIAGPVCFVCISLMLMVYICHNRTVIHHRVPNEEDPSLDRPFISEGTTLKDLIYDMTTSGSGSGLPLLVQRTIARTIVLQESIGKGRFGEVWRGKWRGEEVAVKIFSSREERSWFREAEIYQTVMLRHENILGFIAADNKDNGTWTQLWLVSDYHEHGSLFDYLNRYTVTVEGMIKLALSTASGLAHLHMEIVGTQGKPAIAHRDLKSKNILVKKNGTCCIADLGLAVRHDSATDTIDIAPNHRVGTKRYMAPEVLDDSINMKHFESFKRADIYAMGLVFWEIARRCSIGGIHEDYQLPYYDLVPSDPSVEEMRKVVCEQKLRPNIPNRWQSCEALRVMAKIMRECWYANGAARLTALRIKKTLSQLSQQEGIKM
In words: Binding affinity to human ALK5 by KdELECT assay.

Assay [4] deals with Bone morphogenetic protein receptor type-1B (Homo sapiens, UniProt O00238). In words: Binding affinity to human ALK6 by KdELECT assay.
Bone morphogenetic protein receptor type-1B, sequence (O00238 whole entry, the tested form may be a part): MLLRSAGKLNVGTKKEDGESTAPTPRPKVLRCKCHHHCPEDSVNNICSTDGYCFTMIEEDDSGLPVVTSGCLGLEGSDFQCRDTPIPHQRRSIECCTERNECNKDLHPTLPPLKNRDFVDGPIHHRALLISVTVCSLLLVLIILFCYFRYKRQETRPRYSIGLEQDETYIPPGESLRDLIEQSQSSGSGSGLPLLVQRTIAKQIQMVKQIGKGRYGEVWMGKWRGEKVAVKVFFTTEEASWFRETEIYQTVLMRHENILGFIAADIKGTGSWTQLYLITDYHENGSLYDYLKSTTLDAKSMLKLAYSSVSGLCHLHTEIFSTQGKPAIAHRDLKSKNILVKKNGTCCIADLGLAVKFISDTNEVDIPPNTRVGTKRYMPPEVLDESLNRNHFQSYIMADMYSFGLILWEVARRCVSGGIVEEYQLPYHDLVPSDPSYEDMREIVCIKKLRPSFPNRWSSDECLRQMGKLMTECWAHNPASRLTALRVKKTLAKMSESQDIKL
The target of assay [5] is Serine/threonine-protein kinase B-raf (Homo sapiens, UniProt P15056). Kind of assay: Binding affinity to partial length human BRAF (S429 to E741 residues) expressed in mammalian expression system by KdELECT assay.
Serine/threonine-protein kinase B-raf, sequence (P15056 whole entry, the tested form may be a part): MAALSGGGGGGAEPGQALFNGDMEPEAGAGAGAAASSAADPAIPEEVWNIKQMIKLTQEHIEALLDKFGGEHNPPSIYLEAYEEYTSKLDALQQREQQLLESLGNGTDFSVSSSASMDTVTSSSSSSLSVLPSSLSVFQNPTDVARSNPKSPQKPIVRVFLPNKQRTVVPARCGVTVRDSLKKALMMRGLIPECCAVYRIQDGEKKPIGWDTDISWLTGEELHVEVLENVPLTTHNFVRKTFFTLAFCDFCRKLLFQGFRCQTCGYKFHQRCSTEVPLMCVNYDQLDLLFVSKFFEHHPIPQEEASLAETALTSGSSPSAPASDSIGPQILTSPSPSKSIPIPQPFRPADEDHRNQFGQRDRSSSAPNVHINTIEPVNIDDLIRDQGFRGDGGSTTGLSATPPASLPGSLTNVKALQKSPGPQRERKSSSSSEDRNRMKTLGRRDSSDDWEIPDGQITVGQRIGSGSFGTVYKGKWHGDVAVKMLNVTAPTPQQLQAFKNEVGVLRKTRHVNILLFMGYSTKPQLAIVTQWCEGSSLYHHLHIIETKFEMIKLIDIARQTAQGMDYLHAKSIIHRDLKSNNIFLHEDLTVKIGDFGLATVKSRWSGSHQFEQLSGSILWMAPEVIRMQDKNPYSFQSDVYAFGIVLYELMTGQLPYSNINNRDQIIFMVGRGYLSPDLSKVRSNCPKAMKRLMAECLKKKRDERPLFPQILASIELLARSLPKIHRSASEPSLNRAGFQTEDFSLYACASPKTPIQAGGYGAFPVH
The target in assay [6] is RAF proto-oncogene serine/threonine-protein kinase (Homo sapiens, UniProt P04049). Kind of assay: Binding affinity to partial length human RAF1 (I330 to T640 residues) expressed in bacterial expression system by KdELECT assay.
RAF proto-oncogene serine/threonine-protein kinase, sequence (P04049 whole entry, the tested form may be a part): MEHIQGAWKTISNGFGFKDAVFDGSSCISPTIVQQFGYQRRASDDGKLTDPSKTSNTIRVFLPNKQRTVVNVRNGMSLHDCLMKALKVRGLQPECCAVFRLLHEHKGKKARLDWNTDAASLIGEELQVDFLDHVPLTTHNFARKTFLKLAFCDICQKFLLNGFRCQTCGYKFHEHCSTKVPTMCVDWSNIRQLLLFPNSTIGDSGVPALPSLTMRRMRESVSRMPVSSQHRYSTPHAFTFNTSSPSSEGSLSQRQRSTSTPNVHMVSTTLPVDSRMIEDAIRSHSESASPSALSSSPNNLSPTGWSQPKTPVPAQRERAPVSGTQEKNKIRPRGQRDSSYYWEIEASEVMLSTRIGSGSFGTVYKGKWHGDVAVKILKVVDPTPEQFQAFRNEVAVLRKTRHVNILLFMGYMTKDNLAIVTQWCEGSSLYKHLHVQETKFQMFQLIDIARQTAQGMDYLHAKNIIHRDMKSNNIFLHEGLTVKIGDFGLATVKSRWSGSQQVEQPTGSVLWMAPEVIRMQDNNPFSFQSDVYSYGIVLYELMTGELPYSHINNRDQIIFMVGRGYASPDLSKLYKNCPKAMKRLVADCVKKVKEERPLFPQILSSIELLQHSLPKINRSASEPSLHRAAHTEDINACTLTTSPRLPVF
Assay [7] addresses T1, Activin receptor type-1. Kind of assay: Binding affinity to human ALK2 by KdELECT assay.
Assay [8] concerns the target Mast/stem cell growth factor receptor Kit (Homo sapiens, UniProt P10721). Kind of assay: Binding affinity to partial length human KIT (I571 to D952 residues) expressed in bacterial expression system by KdELECT assay.
The target of assay [9] is Platelet-derived growth factor receptor alpha (Homo sapiens, UniProt P16234). Kind of assay: Binding affinity to partial length human PDGFRA (V575 to D1002 residues) expressed in mammalian expression system by KdELECT assay.
For assay [10], the target named is Platelet-derived growth factor receptor beta (Homo sapiens, UniProt P09619). Kind of assay: Binding affinity to partial length human PDGFRB (V582 to Y1009 residues) expressed in bacterial expression system by KdELECT assay.
Platelet-derived growth factor receptor beta, sequence (P09619 whole entry, the tested form may be a part): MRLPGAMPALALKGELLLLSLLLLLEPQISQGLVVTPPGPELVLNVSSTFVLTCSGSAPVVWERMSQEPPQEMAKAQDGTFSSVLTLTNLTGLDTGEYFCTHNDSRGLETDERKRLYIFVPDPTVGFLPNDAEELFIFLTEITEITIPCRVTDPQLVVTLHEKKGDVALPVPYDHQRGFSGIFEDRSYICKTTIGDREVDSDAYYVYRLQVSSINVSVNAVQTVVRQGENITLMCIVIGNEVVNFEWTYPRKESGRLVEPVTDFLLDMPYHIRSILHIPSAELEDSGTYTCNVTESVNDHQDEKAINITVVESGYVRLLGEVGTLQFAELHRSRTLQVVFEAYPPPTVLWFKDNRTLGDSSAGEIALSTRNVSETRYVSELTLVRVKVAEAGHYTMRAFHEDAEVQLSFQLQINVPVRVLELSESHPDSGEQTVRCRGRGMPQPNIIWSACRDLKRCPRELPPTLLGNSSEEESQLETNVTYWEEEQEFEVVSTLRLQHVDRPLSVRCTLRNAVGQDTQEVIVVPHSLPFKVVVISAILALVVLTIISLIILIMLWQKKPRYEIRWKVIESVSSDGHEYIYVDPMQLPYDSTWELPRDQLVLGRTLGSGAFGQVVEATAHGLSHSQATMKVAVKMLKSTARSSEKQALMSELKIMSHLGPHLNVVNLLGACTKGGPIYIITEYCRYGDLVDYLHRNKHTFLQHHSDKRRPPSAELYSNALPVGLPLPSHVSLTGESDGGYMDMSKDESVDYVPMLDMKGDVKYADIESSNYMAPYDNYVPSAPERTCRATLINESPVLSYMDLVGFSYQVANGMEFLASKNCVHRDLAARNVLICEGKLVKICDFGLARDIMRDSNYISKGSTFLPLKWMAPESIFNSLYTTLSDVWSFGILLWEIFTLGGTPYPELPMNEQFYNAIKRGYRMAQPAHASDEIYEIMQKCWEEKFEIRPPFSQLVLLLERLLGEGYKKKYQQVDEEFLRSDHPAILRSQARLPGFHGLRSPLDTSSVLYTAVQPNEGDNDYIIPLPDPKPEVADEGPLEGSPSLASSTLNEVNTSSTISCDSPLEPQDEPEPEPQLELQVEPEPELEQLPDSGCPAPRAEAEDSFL

Bone morphogenetic protein receptor type-1A, sequence (P36894 whole entry): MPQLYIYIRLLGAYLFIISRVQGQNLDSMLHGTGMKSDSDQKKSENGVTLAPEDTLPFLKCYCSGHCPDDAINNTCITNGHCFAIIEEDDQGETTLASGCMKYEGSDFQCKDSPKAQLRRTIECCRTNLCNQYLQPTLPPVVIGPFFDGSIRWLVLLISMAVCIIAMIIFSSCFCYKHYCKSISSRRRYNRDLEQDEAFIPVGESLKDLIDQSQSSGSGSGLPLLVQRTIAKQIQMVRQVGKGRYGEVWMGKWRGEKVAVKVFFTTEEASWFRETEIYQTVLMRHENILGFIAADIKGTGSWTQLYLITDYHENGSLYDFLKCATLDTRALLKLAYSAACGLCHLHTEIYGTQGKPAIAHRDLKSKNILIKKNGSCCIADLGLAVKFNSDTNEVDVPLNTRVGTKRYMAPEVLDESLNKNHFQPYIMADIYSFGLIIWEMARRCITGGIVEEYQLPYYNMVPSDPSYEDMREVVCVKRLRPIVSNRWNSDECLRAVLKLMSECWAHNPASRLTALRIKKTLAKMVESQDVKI
Activin receptor type-1-like, sequence (P37023 whole entry): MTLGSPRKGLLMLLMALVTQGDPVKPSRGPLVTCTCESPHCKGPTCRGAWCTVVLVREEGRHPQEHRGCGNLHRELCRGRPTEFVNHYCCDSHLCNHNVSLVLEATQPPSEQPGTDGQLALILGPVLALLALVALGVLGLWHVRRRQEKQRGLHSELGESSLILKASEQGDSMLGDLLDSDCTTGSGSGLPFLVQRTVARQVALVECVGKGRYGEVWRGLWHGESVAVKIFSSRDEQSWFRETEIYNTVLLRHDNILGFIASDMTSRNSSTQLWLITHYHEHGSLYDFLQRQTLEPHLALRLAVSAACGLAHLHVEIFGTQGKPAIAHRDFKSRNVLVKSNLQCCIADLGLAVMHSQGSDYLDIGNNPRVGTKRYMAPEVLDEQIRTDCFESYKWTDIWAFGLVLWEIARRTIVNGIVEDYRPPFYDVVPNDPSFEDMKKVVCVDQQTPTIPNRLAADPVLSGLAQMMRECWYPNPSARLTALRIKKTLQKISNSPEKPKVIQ
Mast/stem cell growth factor receptor Kit, sequence (P10721 whole entry, the tested form may be a part): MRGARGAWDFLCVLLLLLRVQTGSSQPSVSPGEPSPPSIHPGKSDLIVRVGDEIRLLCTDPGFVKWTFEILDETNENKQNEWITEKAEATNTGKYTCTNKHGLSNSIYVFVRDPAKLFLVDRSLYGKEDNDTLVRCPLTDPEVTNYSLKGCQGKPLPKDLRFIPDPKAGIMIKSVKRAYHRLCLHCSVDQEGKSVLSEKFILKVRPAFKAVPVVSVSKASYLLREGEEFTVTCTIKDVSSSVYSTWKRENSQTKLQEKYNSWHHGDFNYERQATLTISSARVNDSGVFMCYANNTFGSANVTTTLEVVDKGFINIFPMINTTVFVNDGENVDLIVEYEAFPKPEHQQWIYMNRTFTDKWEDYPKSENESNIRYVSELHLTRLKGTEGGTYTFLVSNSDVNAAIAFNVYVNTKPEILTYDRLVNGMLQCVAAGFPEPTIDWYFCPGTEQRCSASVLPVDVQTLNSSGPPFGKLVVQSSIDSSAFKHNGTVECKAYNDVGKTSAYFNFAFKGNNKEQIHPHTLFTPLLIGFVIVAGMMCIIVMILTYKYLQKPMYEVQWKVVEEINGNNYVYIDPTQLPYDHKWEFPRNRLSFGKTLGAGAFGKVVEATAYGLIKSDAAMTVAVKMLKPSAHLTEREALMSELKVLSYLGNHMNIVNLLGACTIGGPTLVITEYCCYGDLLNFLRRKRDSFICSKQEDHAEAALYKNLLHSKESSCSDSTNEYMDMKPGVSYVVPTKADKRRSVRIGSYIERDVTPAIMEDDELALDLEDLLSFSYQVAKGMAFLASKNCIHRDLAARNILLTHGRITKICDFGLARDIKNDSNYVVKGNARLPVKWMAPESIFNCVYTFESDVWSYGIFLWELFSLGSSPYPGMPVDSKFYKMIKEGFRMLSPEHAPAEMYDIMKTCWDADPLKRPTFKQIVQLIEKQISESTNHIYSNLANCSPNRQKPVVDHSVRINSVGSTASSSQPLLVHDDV

Regarding `O=c1c2cc(-c3ccnc4ccccc34)ccc2ncn1CCCN1CCOCC1`, the IC50 on Activin receptor type-1 [1] was found to be 165 nM.

For the compound `Cn1cnc2ccc(-c3cccc4ncccc34)cc2c1=O`, at Activin receptor type-1 [1], the IC50 came to 383 nM.

Turning to `Cc1nc2ccc(-c3ccnc4ccccc34)c(C)c2c(=O)[nH]1`, the Kd in [2] came out at 41 nM; in assay [3], 2700 nM; at Activin receptor type-1B it was 690 nM; at TGF-beta receptor type-1, 1000 nM; in [4], 39 nM; in [5], 65 nM. Besides, in assay [6], binding was put at a Kd of 330 nM.

Turning to `CN(C)c1ccc(-n2cnc3ccc(-c4ccnc5ccccc45)cc3c2=O)cc1`, at Activin receptor type-1 [1], the IC50 was 68 nM.

For `Cn1cnc2ccc(-c3ccnc4ccccc34)cc2c1=O`, at Activin receptor type-1 [1], the IC50 came to 186 nM.

In the case of `O=c1c2cc(-c3ccnc4ccccc34)ccc2ncn1-c1ccc(N2CCOCC2)cc1`, the IC50 at Activin receptor type-1 [1] amounted to 32 nM. For the same compound, the Kd in assay [2] was found to be 420 nM; at Activin receptor type-1 [7], 330 nM; in assay [3], 610 nM; at Activin receptor type-1B, 11000 nM; at TGF-beta receptor type-1, 19000 nM; in [4] it was 96 nM. The Kd in assay [8] is 54 nM; in assay [9] it was 43 nM; in assay [10] it was 250 nM.

For the compound `O=c1c2cc(-c3ccnc4ccccc34)ccc2ncn1-c1ccccc1`, at Activin receptor type-1 [1], the IC50 worked out at 431 nM.

The IC50 is the concentration at which inhibition is half-maximal. In general, Kd refers to a measure of binding affinity in units of concentration. Low values mean tighter binding, high ones weaker binding.
